Assay results published in patent publication US20090137499A1, “BENZYLPHENYL GLUCOPYRANOSIDE DERIVATIVE” (priority 2006, published 2009).

biological target: T1, human SGLT1 (Homo sapiens, UniProt P13866); experiment: Determination of SGLT1 inhibiting activity using human SGLT1 expressing cell ([14C]-α-methyl-D-glucopyranoside uptake); assay type: cell-based; conditions: HEK-SGLT1 cells, 1 mM [14C]-α-methyl-D-glucopyranoside, 37° C., 30 min
T1 construct: expressed in transfected cells
T1 sequence (P13866 1-664): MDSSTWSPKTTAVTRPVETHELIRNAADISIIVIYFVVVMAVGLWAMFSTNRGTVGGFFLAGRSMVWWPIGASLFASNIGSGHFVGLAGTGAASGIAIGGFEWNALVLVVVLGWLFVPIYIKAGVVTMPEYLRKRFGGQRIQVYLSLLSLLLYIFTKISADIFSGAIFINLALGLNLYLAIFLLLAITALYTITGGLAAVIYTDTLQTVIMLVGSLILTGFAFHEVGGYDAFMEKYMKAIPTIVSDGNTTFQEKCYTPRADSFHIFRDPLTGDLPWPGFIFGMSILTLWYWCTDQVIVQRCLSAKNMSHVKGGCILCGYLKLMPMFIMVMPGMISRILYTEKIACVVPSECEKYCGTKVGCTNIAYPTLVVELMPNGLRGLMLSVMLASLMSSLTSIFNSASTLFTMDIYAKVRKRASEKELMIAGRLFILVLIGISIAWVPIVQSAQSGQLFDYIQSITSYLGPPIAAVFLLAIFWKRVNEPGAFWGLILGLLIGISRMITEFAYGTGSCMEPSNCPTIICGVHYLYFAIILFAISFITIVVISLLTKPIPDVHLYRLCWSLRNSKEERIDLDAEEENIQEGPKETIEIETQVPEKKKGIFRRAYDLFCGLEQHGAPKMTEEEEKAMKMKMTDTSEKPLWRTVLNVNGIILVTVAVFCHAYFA
Description: Determination of SGLT1 Inhibiting Activity Using Human SGLT1 Expressing Cell
1) Preparation of Vector Expressing Human SGLT1 cDNA in Animal Cell
Amplification was performed by PCR using human SGLT1 cDNA clone (Origene: Clone Number, TC119918; GenBank accession number, NM 000343) as a template. The sense oligonucleotide primer for PCR was 5′-[…]-3′ (Primer 1: SEQ ID NO: 1 in the sequence listing),
and the antisense oligonucleotide primer was 5′-[…]-3′ (Primer 2: SEQ ID NO: 2 in the sequence listing).
The PCR product was subjected to agarose electrophoresis, then a target DNA fragment was recovered from a single band corresponding to 2013 bases, digested with restriction enzymes HindIII and XhoI, and introduced into the HindIII/XhoI site of vector pCMV-Script (Stratagene) to obtain SGLT1 expressing plasmid pCMV-SGLT1. A HindIII/XhoI fragment was excised from pCMV-SGLT1 and introduced into the BamHI/XhoI site of pENTR1A (Gateway, Invitrogen) to prepare pENTR-SGLT1. Retrovirus vector pLPCX (Clontech) into which Gateway Vector Conversion System Cassette A (Invitrogen) was introduced was used as the destination plasmid to prepare SGLT1 expressing retrovirus vector pLPCX-SGLT1.
2) Establishment of Human SGLT1 Expressing Cell
The retrovirus pLPCX-SGLT1 obtained in 1) was transfected into integrin αvβ3 expressing HEK-293 cells and, the cells were treated with antibiotic G418 (brand name, Geneticin: Invitrogen) and puromycin (Clontech) to obtain HEK-SGLT1 cells stably expressing the target vector having resistance. The stably expressing cells were cultured and maintained in DMEM medium containing […] G418, […] puromycin, 3 mM KGT-1075, and 10% FBS.
3) Determination of SGLT1 Inhibiting Activity
HEK-SGLT1 cells were suspended at a density of 10^6 cells/mL in DMEM medium containing […] G418, 1 mg/ml puromycin, and 10% FBS, and 100 μL was seeded in each well of a type 1 collagen-coated 96-well culture plate (Corning). On the following day, the medium was replaced with a sugar uptake buffer (10 mM HEPES [pH 7.5], 5 mM Tris-HCl [pH 7.5], 140 mM NaCl, 2 mM KCl, 1 mM CaCl2, 1 mM MgCl2), and the cells were cultured with 1 mM [^14C]-α-methyl-D-glucopyranoside (0.1 mCi) and the test compound at 37° C. for 30 min and then washed 3 times with a washing buffer (10 mM HEPES [pH 7.5], 5 mM Tris-HCl [pH 7.5], 140 mM choline chloride, 2 mM KCl, 1 mM CaCl2, 1 mM MgCl2). 100 μL of liquid scintillation cocktail (brand name, Supermix: Perkin-Elmer) was added to each well of the 96-well plate and stirred for 10 min, and then radioactivity was determined with micro β (Perkin-Elmer), a type of liquid scintillation counter. The value as the sugar uptake activity was obtained by deducting the radioactivity in the presence of an excess amount of an SGLT1 inhibiting compound as the background from each measured value, the inhibition rate (%) was calculated from the control sugar uptake activity obtained without using a test compound and the sugar uptake activity obtained using a test compound having a predetermined the concentration, and concentrations of the test compound at which the sugar uptake activity was inhibited by 50% were assessed.

Compound	IC50
COc1ccc(Cc2c(OC)cc(CO)cc2O[C@@H]2O[C@H]([C@@H](C)O)[C@@H](O)[C@H](O)[C@H]2O)cc1 [Example 83, 5-Hydroxymethyl-3-methoxy-2-(4-methoxybenzyl)phenyl 7-deoxy-D-glycero-β-D-gluco-heptopyranoside]	0.142 µM
CCc1ccc(Cc2c(C)cc(CO)cc2O[C@@H]2O[C@H]([C@@H](C)O)[C@@H](O)[C@H](O)[C@H]2O)cc1 [Example 89, 2-(4-Ethylbenzyl)-5-hydroxymethyl-3-methylphenyl 7-deoxy-D-glycero-β-D-gluco-heptopyranoside]	0.081 µM
CCOc1ccc(Cc2ccc(CO)cc2O[C@@H]2O[C@H]([C@@H](C)O)[C@@H](O)[C@H](O)[C@H]2O)cc1 [Example 93, 2-(4-Ethoxybenzyl)-5-hydroxymethylphenyl 7-deoxy-D-glycero-β-D-gluco-heptapyranoside]	0.43 µM
C[C@@H](O)[C@H]1O[C@@H](Oc2cc(CO)cc(Cl)c2Cc2ccc(OC3CC3)cc2)[C@H](O)[C@@H](O)[C@@H]1O [Example 95, 3-Chloro-2-(4-cyclopropoxybenzyl)-5-hydroxymethyl-phenyl 7-deoxy-D-glycero-β-D-gluco-heptopyranoside]	0.082 µM
Cc1cc(CO)cc(O[C@@H]2O[C@H]([C@@H](C)O)[C@@H](O)[C@H](O)[C@H]2O)c1Cc1ccc(OC2CC2)cc1 [Example 96, 2-(4-Cyclopropoxybenzyl)-5-hydroxymethyl-3-methyl-phenyl 7-deoxy-D-glycero-β-D-gluco-heptopyranoside]	0.077 µM
C=Cc1cc(CO)cc(O[C@@H]2O[C@H]([C@@H](C)O)[C@@H](O)[C@H](O)[C@H]2O)c1Cc1ccc(OC)cc1 [Example 101, 5-Hydroxymethyl-2-(4-methoxybenzyl)-3-vinyl-phenyl 7-deoxy-D-glycero-β-D-gluco-heptopyranoside]	0.168 µM

Continued, values first:

IC50	Compound
0.031 µM	COc1ccc(Cc2c(F)cc(CO)cc2O[C@@H]2O[C@H]([C@@H](C)O)[C@@H](O)[C@H](O)[C@H]2O)cc1 [Example 84, 3-Fluoro-5-hydroxymethyl-2-(4-methoxybenzyl)phenyl 7-deoxy-D-glycero-β-D-gluco-heptopyranoside]
0.051 µM	C[C@@H](O)[C@H]1O[C@@H](Oc2cc(CO)cc(F)c2Cc2ccc(C3CC3)cc2)[C@H](O)[C@@H](O)[C@@H]1O [Example 88, 2-(4-Cyclopropylbenzyl)-3-fluoro-5-hydroxymethylphenyl 7-deoxy-D-glycero-β-D-gluco-heptopyranoside]
0.037 µM	COc1ccc(Cc2c(C)cc(CO)cc2O[C@@H]2O[C@H]([C@@H](C)O)[C@@H](O)[C@H](O)[C@H]2O)cc1 [Example 94, 5-Hydroxymethyl-2-(4-methoxybenzyl)-3-methylphenyl 7-deoxy-D-glycero-β-D-gluco-heptopyranoside]
0.052 µM	Cc1ccc(Cc2c(F)cc(CO)cc2O[C@@H]2O[C@H]([C@@H](C)O)[C@@H](O)[C@H](O)[C@H]2O)cc1 [Example 97, 3-Fluoro-5-hydroxymethyl-2-(4-methylbenzyl)phenyl 7-deoxy-D-glycero-β-D-gluco-heptopyranoside]
0.18 µM	Cc1ccc(Cc2ccc(CO)cc2O[C@@H]2O[C@H]([C@@H](C)O)[C@@H](O)[C@H](O)[C@H]2O)cc1 [Example 98, 5-Hydroxymethyl-2-(4-methylbenzyl)phenyl 7-deoxy-D-glycero-β-D-gluco-heptapyranoside]
